Test results: patent US8957192B2, “Human cytotoxic T-lymphocyte epitope and its agonist epitope from the non-variable number of tandem repeat sequence of MUC-1” (The United States of America, as represented by the …, priority 2003, dated 2015)
“And” between values parts separate entries of the source, which are not always exact repeats. Identical values can stand only once.

Tests used:
HLA-A2 molecule [1] = molecular target: HLA-A2 molecule (Homo sapiens, UniProt P04439, I166T/I218V/L300P/L318F/N151K/N90K/P208A/P217A/Q86G/Q94H/R138H/R169H/T345S); experiment: T2 cell binding assay: peptide binding to HLA-A2 by flow cytometry
Method: In this assay, increased stability (accumulation) of HLA-A2 molecules on the surface of T2 cells as a consequence of peptide binding is measured by increased binding of antibody directed against HLA-A2 molecule. Briefly, 1×10^6 cells in serum-free Iscove's modified Dulbecco's complete medium were incubated with peptides at a concentration of 50 μg/ml in 24-well culture plates at 37° C. in 5% CO2. Flow cytometry for peptide binding was performed using T2 cells and single-color analysis. After cells were washed three times in DPBS, as described above, they were incubated for 1 h with a 1:100 dilution of HLA-A2-specific MAb (One Lambda, Inc.) per 10^6 cells. UPC-10 (Cappel/Organon Teknika) was used as isotype control. The cells were then washed three times and incubated with 1:100 dilution of FITC-labeled anti-mouse IgG (BD Biosciences). Analysis was conducted with the FACScan, as described above. Cells were maintained on ice during all cell preparation and staining.
The primary amino acid sequence of human MUC-1 was analyzed for consensus motifs for novel HLA-A2 binding peptides. […] The CEA CAP1-6D peptide and a NCA peptide were used as a positive and negative control, respectively.

T-1191-MUC-1 cells [2] = experiment: IFN-γ production (ELISA) by T-1191-MUC-1 cells stimulated with peptide-pulsed autologous B cells; type: cell-based, human; settings: for Production of IFN-γ, with peptide: T-1191-MUC-1 at IVS-3, autologous EBV-B cells pulsed 25 μg/ml, effector-to-APC 1:3, 24 h
Method: (§1) Supernatants of T cells exposed for 24 h to peptide-pulsed autologous EBV-transformed B cells, in IL-2-free medium at various peptide concentrations, were screened for secretion of IFN-γ using an ELISA kit (R & D Systems, Minneapolis, Minn.). The results were expressed in pg/ml. A CBA system (BD PharMingen, San Diego, Calif.) was also used to determine the secretion of multiple cytokines by specific T cells. The CBA system uses the fluorescence detection by flow cytometry to measure soluble analyses in a particles-based immunoassay. The BD human Th1/Th2 cytokine CBA Kit was used to measure IL-2, IL-4, IL-5, IL-10, TNF-α protein levels in a single sample. The cytokine capture beads were mixed with PE-conjugated detection antibodies and then incubated with recombinant cytokine standards or test samples to form sandwich complexes. The sample results were generated in graphic and tabular format, using BD PharMingen CBA analysis software. The results were expressed in pg/ml.
The specificity of the MUC-1-specific T cells generated (designated T-1191-MUC-1) was analyzed after IVS cycle 3 (see Materials and Methods) for their ability to release IFN-γ after stimulation with autologous B cells pulsed with each of the MUC-1 peptides listed in Table 1.

HLA-A2 molecule [3] = molecular target: HLA-A2 molecule (Homo sapiens, UniProt P04439, D140Y/D185E/D98H/E176V/E277Q/G131W/G231S/I119V/I121R/I166T/I218V/L300P/L318F/N151K/N90K/P208A/P217A/Q86G/Q94H/R138H/R169H/T345S); experiment: T2 cell binding assay: peptide binding to HLA-A2 by flow cytometry; settings: peptides 0-50 μg/ml; MFI
peptide-HLA-A2 complexes = peptide-HLA-A2 complexes (Homo sapiens, UniProt P04439, D140Y/D185E/D98H/E176V/E277Q/G131W/G231S/I119V/I121R/I166T/I218V/L300P/L318F/N151K/N90K/P208A/P217A/Q86G/Q94H/R138H/R169H/T345S); experiment: Stability of peptide-HLA-A2 complex on T2 cells (brefeldin-A); type: binding; settings: 50 μg/ml overnight, 8-hour observation
Method: FIG. 2 is a graph showing the comparison of the stability of the complex of the P-92, P-93L or P-93I peptide with HLA-A2. T2 cells were incubated overnight with P-92 (open square), P-93L (closed square) or P-93I (closed triangle) peptide at a concentration of 50 μg/ml and then washed free of unbound peptide and incubated with brefeldin-A to block delivery of new class I molecules to the cell surface. At the indicated times, cells were stained for the presence of surface peptide-HLA-A2 complexes. Results are expressed in relative percentage of binding compared with 100% at time 0.
The stability of the peptide-MHC complex for peptides P-92 (native), P-93L and P-93I, was examined. Peptides were incubated with T2 cells overnight, the unbound peptides were washed off, and then incubated with brefeldin-A to block delivery of new class I molecules to the cell surface; at various time points cells were analyzed for the presence of peptide-HLA-A2 complexes.

T-1191-MUC-1 cells [4] = experiment: CBA assay for production of cytokines by MUC-1 peptide-stimulated T cells; type: cell-based, human; settings: peptide 25 μg/ml; effector-to-APC 1:3; 24 h
Method: as §1
The ability of the P-93L and P-93I agonist peptides at various peptide concentrations, to activate the T-1191-MUC-1 cells, was compared. […] The P-93L agonist peptide was thus chosen for further study. The cytokine profile of T-1191-MUC-1 cells stimulated with APCs pulsed with either the P-92 or the P-93L peptide was then analyzed. A CBA assay was used for the analysis. […] No TNF-α could be detected in the supernatants at the 24-h time point.

[5] = system: MUC-1-specific T-cell lines T-23-P-92, T-23-P-93L, T-18-P-92, T-18-P-93L; experiment: IFN-γ production by T-cell lines from two pancreatic cancer subjects stimulated with peptide-pulsed DCs; type: cell-based, human; settings: IVS-4; allogeneic DCs pulsed 25 μg/ml; effector-to-APC 10:1; 24 h
[6] = system: T-cell lines T-rV, T-rF, T-rF(CEA), T-rF(MUC); type: cell-based, human; settings: 24 h
[7] = system: CEA-specific T cells (V8T); type: cell-based, human; settings: 24 h
[8] = system: T-cell lines T-55, T-49, T-41; experiment: IFN-γ production by T-cell lines from cancer patients established with rF-CEA/MUC/TRICOM-infected DCs; type: cell-based, human; settings: autologous DCs as APC; peptides 25 μg/ml; effector-to-APC 10:1; 24 h
[9] = system: MUC-1-specific T cells (T-1191-P93L); type: cell-based, human; settings: 24 h
[10] = Table 1, T2 cells, peptide 50 μg/ml

TLASHSTKTD [Peptide P-1104]
T2 binding (HLA-A2 molecule [1]; [10]): 442 relative fluorescence
Production of IFN-γ, with peptide (T-1191-MUC-1 cells [2]): 305.6 pg/mL

LAFREGTINV [Peptide P-1105]
T2 binding (HLA-A2 molecule [1]; [10]): 461 relative fluorescence
Production of IFN-γ, with peptide (T-1191-MUC-1 cells [2]): <52.3 pg/mL

ALLVLVCVLV [Peptide P-1162]
T2 binding (HLA-A2 molecule [1]; [10]): 431 relative fluorescence
Production of IFN-γ, with peptide (T-1191-MUC-1 cells [2]): <52.3 pg/mL

LQRDISEMFL [Peptide P-1069]
T2 binding (HLA-A2 molecule [1]; [10]): 433 relative fluorescence
Production of IFN-γ, with peptide (T-1191-MUC-1 cells [2]): 288.0 pg/mL

AIWGQDVTSV [Peptide P-93I]
T2 binding (HLA-A2 molecule [1]; Table 4, P-92 analogues): 823 relative fluorescence values
binding to HLA-A2 at various peptide concentrations (FIG. 1) (HLA-A2 molecule [3]): higher levels than P-92 at all peptide concentrations
stability of the peptide-HLA-A2 complex (FIG. 2) (peptide-HLA-A2 complexes): more stable than P-92-HLA-A2 complexes

ATWGQDVTSV [Peptide P-92]
IFN-γ (T-1191-MUC-1 cells [4]): 266 pg/ml/10^6 cell/ml
IL-2 (T-1191-MUC-1 cells [4]): 58.8 pg/ml/10^6 cell/ml
IL-4 (T-1191-MUC-1 cells [4]): <20 pg/ml/10^6 cell/ml
IL-5 (T-1191-MUC-1 cells [4]): <20 pg/ml/10^6 cell/ml
IL-10 (T-1191-MUC-1 cells [4]): <20 pg/ml/10^6 cell/ml
TNF-α (T-1191-MUC-1 cells [4]): <20 pg/ml/10^6 cell/ml
T2 binding (HLA-A2 molecule [1]; [10]): 740 relative fluorescence
T2 binding (HLA-A2 molecule [1]; Table 4, P-92 analogues): 510 relative fluorescence values
Production of IFN-γ, with peptide (T-1191-MUC-1 cells [2]): 380.8 pg/mL
IFN-γ produced by T-18-P-92 [5]: 168.0 pg
IFN-γ produced by T-18-P-93L [5]: 378.2 pg
IFN-γ produced by T-23-P-92 [5]: 299.8 pg
IFN-γ produced by T-23-P-93L [5]: 400.5 pg

AMWGQDVTSL [M-93/L-101]
T2 binding (HLA-A2 molecule [1]; Table 4, P-92 analogues): 325 relative fluorescence values

LIALAVCQC (YLIALAVCQC) [Peptide P-1177]
T2 binding (HLA-A2 molecule [1]; [10]): 338 relative fluorescence
Production of IFN-γ, with peptide (T-1191-MUC-1 cells [2]): <52.3 pg/mL

TISDVSVSDV [Peptide P-1135]
T2 binding (HLA-A2 molecule [1]; [10]): 422 relative fluorescence
Production of IFN-γ, with peptide (T-1191-MUC-1 cells [2]): 347.2 pg/mL

VLVALAIVYL [Peptide P-1169]
T2 binding (HLA-A2 molecule [1]; [10]): 369 relative fluorescence
Production of IFN-γ, with peptide (T-1191-MUC-1 cells [2]): <52.3 pg/mL

ALWGQDVTSV [Peptide P-93L, MUC-1 agonist peptide]
IFN-γ (T-1191-MUC-1 cells [4]): 650 pg/ml/10^6 cell/ml
IL-2 (T-1191-MUC-1 cells [4]): 366.9 pg/ml/10^6 cell/ml
IL-4 (T-1191-MUC-1 cells [4]): <20 pg/ml/10^6 cell/ml
IL-5 (T-1191-MUC-1 cells [4]): 140.9 pg/ml/10^6 cell/ml
IL-10 (T-1191-MUC-1 cells [4]): <20 pg/ml/10^6 cell/ml
TNF-α (T-1191-MUC-1 cells [4]): <20 pg/ml/10^6 cell/ml
Production of IFN-γ by T-rF [6]: 446.0 pg/mL
Production of IFN-γ by T-rF(CEA) [6]: <15.6 pg/mL
Production of IFN-γ by T-rF(MUC) [6]: 626.8 pg/mL
Production of IFN-γ by T-rV [6]: 514.0 pg/mL
IFN-γ, CEA-specific CTL [7]: <15 pg/mL
T2 binding (HLA-A2 molecule [1]; Table 4, P-92 analogues): 821 relative fluorescence values
IFN-γ secretion by T-41 [8]: 745.0 pg/mL
IFN-γ secretion by T-49 [8]: 819.0 pg/mL
IFN-γ secretion by T-55 [8]: 985.8 pg/mL
IFN-γ production by T-1191-MUC-1 cells at various peptide concentrations (FIG. 3) (T-1191-MUC-1 cells [2]; peptides 0-6.25 μg/ml): greatest level of IFN-γ production
binding to HLA-A2 at various peptide concentrations (FIG. 1) (HLA-A2 molecule [3]): higher levels than P-92 at all peptide concentrations
IFN-γ produced by T-18-P-92 [5]: 366.6 pg
IFN-γ produced by T-18-P-93L [5]: 524.1 pg
IFN-γ produced by T-23-P-92 [5]: 644.5 pg
IFN-γ produced by T-23-P-93L [5]: 973.0 pg
IFN-γ, MUC-1-specific CTL [9]: 458 pg/mL and 550 pg/mL
stability of the peptide-HLA-A2 complex (FIG. 2) (peptide-HLA-A2 complexes): more stable than P-92-HLA-A2 complexes
